Assays:
Hepatotoxicity [1] = test system: Hepatotoxicity;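 on HepSE Combined Scores: combined hepatic side effect score as listed in the training data of the Drug Induced Liver Injury Prediction System (DILIps)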;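 on HepSE bilirubinemia: bilirubinemia hepatic side effect score drawn from the DILIps training data, a prediction system for drug-induced liver injury; call rule not given here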;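 on HepSE cholelithiasis: hepatic side effect score for cholelithiasis, drawn from the DILIps training data for predicting drug-induced liver injury; call rule not given here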;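 on HepSE cirrhosis: cirrhosis hepatic side effect score taken from the DILIps (drug-induced liver injury prediction) training set; call rule not given here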;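 on HepSE hepatomegaly: hepatic side effect score for hepatomegaly, taken from the training set of the DILIps drug-induced liver injury prediction system; call rule not given here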;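 on HepSE jaundice: Jaundice-related hepatic side-effect score drawn from the training data of the DILIps (drug-induced liver injury prediction system); call rule not given here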
Hepatotoxicity [2] = test system: Hepatotoxicity; remark: listed apart in the source;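 on HepSE Combined Scores: combined hepatic side effect score as listed in the training data of the Drug Induced Liver Injury Prediction System (DILIps)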;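 on HepSE bilirubinemia: bilirubinemia hepatic side effect score drawn from the DILIps training data, a prediction system for drug-induced liver injury; call rule not given here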;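 on HepSE cholelithiasis: hepatic side effect score for cholelithiasis, drawn from the DILIps training data for predicting drug-induced liver injury; call rule not given here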;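 on HepSE cirrhosis: cirrhosis hepatic side effect score taken from the DILIps (drug-induced liver injury prediction) training set; call rule not given here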;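 on HepSE hepatomegaly: hepatic side effect score for hepatomegaly, taken from the training set of the DILIps drug-induced liver injury prediction system; call rule not given here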;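 on HepSE jaundice: Jaundice-related hepatic side-effect score drawn from the training data of the DILIps (drug-induced liver injury prediction system); call rule not given here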
Hepatotoxicity [3] = test system: Hepatotoxicity; remark: listed apart in the source;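 on HepSE Combined Scores: combined hepatic side effect score as listed in the training data of the Drug Induced Liver Injury Prediction System (DILIps)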;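 on HepSE bilirubinemia: bilirubinemia hepatic side effect score drawn from the DILIps training data, a prediction system for drug-induced liver injury; call rule not given here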;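 on HepSE cholelithiasis: hepatic side effect score for cholelithiasis, drawn from the DILIps training data for predicting drug-induced liver injury; call rule not given here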;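 on HepSE cirrhosis: cirrhosis hepatic side effect score taken from the DILIps (drug-induced liver injury prediction) training set; call rule not given here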;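 on HepSE hepatomegaly: hepatic side effect score for hepatomegaly, taken from the training set of the DILIps drug-induced liver injury prediction system; call rule not given here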;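 on HepSE jaundice: Jaundice-related hepatic side-effect score drawn from the training data of the DILIps (drug-induced liver injury prediction system); call rule not given here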
Hepatotoxicity [4] = test system: Hepatotoxicity; remark: listed apart in the source;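 on HepSE Combined Scores: combined hepatic side effect score as listed in the training data of the Drug Induced Liver Injury Prediction System (DILIps)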;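 on HepSE bilirubinemia: bilirubinemia hepatic side effect score drawn from the DILIps training data, a prediction system for drug-induced liver injury; call rule not given here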;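 on HepSE cholelithiasis: hepatic side effect score for cholelithiasis, drawn from the DILIps training data for predicting drug-induced liver injury; call rule not given here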;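 on HepSE cirrhosis: cirrhosis hepatic side effect score taken from the DILIps (drug-induced liver injury prediction) training set; call rule not given here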;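 on HepSE hepatomegaly: hepatic side effect score for hepatomegaly, taken from the training set of the DILIps drug-induced liver injury prediction system; call rule not given here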;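 on HepSE jaundice: Jaundice-related hepatic side-effect score drawn from the training data of the DILIps (drug-induced liver injury prediction system); call rule not given here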
Hepatotoxicity [5] = test system: Hepatotoxicity; remark: listed apart in the source
Hepatotoxicity [6] = test system: Hepatotoxicity; remark: listed apart in the source
Hepatotoxicity [7] = test system: Hepatotoxicity; remark: listed apart in the source
Hepatotoxicity [8] = test system: Hepatotoxicity; remark: listed apart in the source
Hepatotoxicity [9] = test system: Hepatotoxicity; remark: listed apart in the source
Hepatotoxicity [10] = test system: Hepatotoxicity; remark: listed apart in the source
Hepatotoxicity [11] = test system: Hepatotoxicity; remark: listed apart in the source
Hepatotoxicity [12] = test system: Hepatotoxicity; remark: listed apart in the source
Hepatotoxicity [13] = test system: Hepatotoxicity; remark: listed apart in the source
Hepatotoxicity [14] = test system: Hepatotoxicity; remark: listed apart in the source

| Substance | HepSE_bilirubinemia (Hepatotoxicity [1]) | HepSE_cirrhosis (Hepatotoxicity [2]) | HepSE_hepatomegaly (Hepatotoxicity [3]) | HepSE_cholelithiasis (Hepatotoxicity [4]) | HepSE_hepatitis (Hepatotoxicity [5]) | HepSE_jaundice (Hepatotoxicity [6]) | HepSE_hepatic necrosis (Hepatotoxicity [7]) | HepSE_Combined Scores (Hepatotoxicity [8]) | HepSE_liver function tests abnormal (Hepatotoxicity [9]) | HepSE_hepatic failure (Hepatotoxicity [10]) | HepSE_liver disease (Hepatotoxicity [11]) | HepSE_cholecystitis (Hepatotoxicity [12]) | HepSE_liver fatty (Hepatotoxicity [13]) | HepSE_elevated liver function tests (Hepatotoxicity [14]) |
| --- | --- | --- | --- | --- | --- | --- | --- | --- | --- | --- | --- | --- | --- | --- |
| BLEOMYCIN | 0 | 0 | 0 | 0 | 0 | 0 | 0 | 0 | 0 | 0 | 0 | 0 | 0 | 0 |
| CARBOPLATIN | 0 | 0 | 0 | 0 | 0 | 0 | 0 | 1 | 1 | 0 | 0 | 0 | 0 | 0 |
| CISPLATIN | 0 | 0 | 0 | 0 | 0 | 0 | 0 | 0 | 0 | 0 | 0 | 0 | 0 | 0 |
| COLESEVELAM HYDROCHLORIDE | 0 | 0 | 0 | 0 | 0 | 0 | 0 | 0 | 0 | 0 | 0 | 0 | 0 | 0 |
| COLESTIPOL | 0 | 0 | 0 | 1 | 0 | 0 | 0 | 2 | 0 | 0 | 0 | 1 | 0 | 0 |
| GADOBUTROL | 0 | 0 | 0 | 0 | 0 | 0 | 0 | 0 | 0 | 0 | 0 | 0 | 0 | 0 |
| GADODIAMIDE | 0 | 0 | 0 | 0 | 0 | 0 | 0 | 0 | 0 | 0 | 0 | 0 | 0 | 0 |
| GADOFOSVESET TRISODIUM | 0 | 0 | 0 | 0 | 0 | 0 | 0 | 0 | 0 | 0 | 0 | 0 | 0 | 0 |
| GADOTERIDOL | 0 | 0 | 0 | 0 | 0 | 0 | 0 | 0 | 0 | 0 | 0 | 0 | 0 | 0 |
| GENTAMICIN | 0 | 0 | 1 | 0 | 0 | 0 | 0 | 1 | 0 | 0 | 0 | 0 | 0 | 0 |
| GLATIRAMER ACETATE | 0 | 1 | 1 | 1 | 1 | 0 | 0 | 5 | 0 | 0 | 0 | 1 | 0 | 0 |
| GOLD SODIUM THIOMALATE | 0 | 0 | 0 | 0 | 0 | 1 | 0 | 2 | 0 | 1 | 0 | 0 | 0 | 0 |
| HEPARIN | 0 | 0 | 0 | 0 | 0 | 0 | 0 | 1 | 0 | 0 | 1 | 0 | 0 | 0 |
| HYDROXOCOBALAMIN | 0 | 0 | 0 | 0 | 0 | 0 | 0 | 0 | 0 | 0 | 0 | 0 | 0 | 0 |
| IVERMECTIN | 0 | 0 | 0 | 0 | 0 | 0 | 0 | 0 | 0 | 0 | 0 | 0 | 0 | 0 |

— ChEMBL document CHEMBL1909294, “Translating clinical findings into knowledge in drug safety evaluation--drug induced liver injury prediction system (DILIps)” (PLoS Comput Biol, 2011)
